Test results: patent US12290073B2, “Anti-microbial compound and methods of use” (SHENZHEN UNIVERSITY, priority 2019, dated 2025)
Like-named read-outs stand apart in the source and are kept apart here.

Assays:
Experiment in all cases: Anti-microbial rate of finished cotton textiles, FZ/T73023-2006 D.8 shocking method
Assay type in all cases: cell-based
[1] = test system: Candida Albicans (C. albicans 10231); conditions: finishing liquid 1.0 wt %; for killing at 1 %: Candida albicans, read-out: Anti-microbial rate (%) of cotton textiles finished with compound E (1.0 wt %), C. albicans
Description: (§1) Each of the reaction products (i.e., compound E) according to Examples 1-21 was used to prepare an anti-microbial agent (e.g., a finishing liquid), and the anti-microbial effects were different depending on compound E and conditions of use.
(§2) Remarks: 1) in the data of anti-microbial rate in Table 5: Examples 1-9 used a soaking-rolling-drying process to finish cotton fabric, where the bath ratio (i.e., the ratio of the weight of a liquid containing compound E to the weight of the cotton fabric) was 20:1, the residual liquid ratio was 90%, and the drying process was conducted at 85° C. for 30 minutes; Examples 10-18 were prepared by a soaking-high speed spinning-drying method, where the bath ratio was 20:1, the residual liquid ratio was 90%, and the drying process was conducted at 85° C. for 20 min; Examples 19-21 were prepared by a spraying-spinning-drying process with a bath ratio of 30:1, a residual liquid ratio of 85% after drying, and the drying process was conducted at 105° C. for 5 minutes.
(§3) 2) Table 5 data test method: FZ/T73023-2006 anti-microbial textiles D.8 shocking method. In addition, the inhibition zone method (FZ/T73023-2006 anti-microbial textiles—Appendix E—inhibition zone method) was used to test whether the active compound (E) was released from the finished cotton textiles, the inhibition zone test result of the 21 examples and zwitterions were 0 mm, and thus compound E was not released from the finished cotton textiles. The anti-microbial finishing agent used in the comparative experiment was zwitterion with the molecular structure
(§4) 3) The composition of the finishing liquid in Table 5 was: compound E 1.0 wt %, sodium bicarbonate 1.0 wt %, and the rest of the finishing liquid was water.

[2] = test system: Escherichia Coli (E. coli, ATCC25922); conditions: for killing at 1 %: Escherichia coli, ATCC25922, finishing liquid 1.0 wt %, read-out: Anti-microbial rate (%) of cotton textiles finished with compound E (1.0 wt %), E. coli; for Anti-microbial rate (%) of cotton textiles finished with compound E (1.0 wt %), E. coli: finishing liquid 1.0 wt %
Description: as §1, §2, §3, §4

[3] = test system: Staphylococcus Aureus (S. aureus, ATCC 6538); conditions: for killing at 1 %: Staphylococcus aureus, ATCC6538, finishing liquid 1.0 wt %, read-out: Anti-microbial rate (%) of cotton textiles finished with compound E (1.0 wt %), S. aureus; for Anti-microbial rate (%) of cotton textiles finished with compound E (1.0 wt %), S. aureus: finishing liquid 1.0 wt %
Description: as §1, §2, §3, §4

C[N+](C)(CCCS(=O)(=O)[O-])CCOc1nc(Cl)nc(Cl)n1 [Comparative Experiment, reference compound]
killing at 1 % ([1]; times of washing 0): 95%
killing at 1 % ([1]; times of washing 10): 78%
killing at 1 % ([1]; times of washing 50): 69%
killing at 1 % ([2]; times of washing 0): 99.9%
killing at 1 % ([2]; times of washing 10): 83%
killing at 1 % ([2]; times of washing 50): 75%
killing at 1 % ([3]; times of washing 0): 99.9%
killing at 1 % ([3]; times of washing 10): 86%
killing at 1 % ([3]; times of washing 50): 80%

C[N+](C)(C)CCNc1nc(Cl)nc(Cl)n1 [Example 3]
killing at 1 % ([1]; times of washing 0): 99.9%
killing at 1 % ([1]; times of washing 10): 99.9%
killing at 1 % ([1]; times of washing 50): 99.9%
killing at 1 % ([2]; times of washing 0): 100%
killing at 1 % ([2]; times of washing 10): 99.9%
killing at 1 % ([2]; times of washing 50): 99.2%
killing at 1 % ([3]; times of washing 0): 100%
killing at 1 % ([3]; times of washing 10): 99.9%
killing at 1 % ([3]; times of washing 50): 99.9%

C[N+](C)(C)COc1nc(Cl)nc(Cl)n1 [Example 5]
killing at 1 % ([1]; times of washing 0): 99.9%
killing at 1 % ([1]; times of washing 10): 99.9%
killing at 1 % ([1]; times of washing 50): 97.9%
killing at 1 % ([2]; times of washing 0): 100%
killing at 1 % ([2]; times of washing 10): 99.9%
killing at 1 % ([2]; times of washing 50): 99.1%
killing at 1 % ([3]; times of washing 0): 100%
killing at 1 % ([3]; times of washing 10): 99.9%
killing at 1 % ([3]; times of washing 50): 99.9%

CCCCCCCC[N+](C)(C)CC(C)Oc1nc(Cl)nc(Cl)n1 (stereo not drawn) [Example 6]
killing at 1 % ([1]; times of washing 0): 99.9%
killing at 1 % ([1]; times of washing 10): 99.9%
killing at 1 % ([1]; times of washing 50): 97.9%
killing at 1 % ([2]; times of washing 0): 100%
killing at 1 % ([2]; times of washing 10): 99.9%
killing at 1 % ([2]; times of washing 50): 99.5%
killing at 1 % ([3]; times of washing 0): 100%
killing at 1 % ([3]; times of washing 10): 99.9%
killing at 1 % ([3]; times of washing 50): 99.9%

CCCCCCCCCCCCCC[n+]1ccn(CCCNc2nc(C)nc(Cl)n2)c1 [Example 7]
killing at 1 % ([1]; times of washing 0): 99.9%
killing at 1 % ([1]; times of washing 10): 99.9%
killing at 1 % ([1]; times of washing 50): 98.6%
killing at 1 % ([2]; times of washing 0): 100%
killing at 1 % ([2]; times of washing 10): 99.9%
killing at 1 % ([2]; times of washing 50): 99.9%
killing at 1 % ([3]; times of washing 0): 100%
killing at 1 % ([3]; times of washing 10): 99.9%
killing at 1 % ([3]; times of washing 50): 99.9%

CCCCCCCCCC[n+]1ccc(CCOc2nc(Cl)nc(Br)n2)cc1 [Example 8]
killing at 1 % ([1]; times of washing 0): 99.9%
killing at 1 % ([1]; times of washing 10): 99.9%
killing at 1 % ([1]; times of washing 50): 98.9%
killing at 1 % ([2]; times of washing 0): 100%
killing at 1 % ([2]; times of washing 10): 99.9%
killing at 1 % ([2]; times of washing 50): 99.5%
killing at 1 % ([3]; times of washing 0): 100%
killing at 1 % ([3]; times of washing 10): 99.9%
killing at 1 % ([3]; times of washing 50): 99.9%

C[n+]1ccc(CNc2nc(Cl)nc([N+](=O)[O-])n2)cc1 [Example 9]
killing at 1 % ([1]; times of washing 0): 99.9%
killing at 1 % ([1]; times of washing 10): 99.9%
killing at 1 % ([1]; times of washing 50): 99.2%
killing at 1 % ([2]; times of washing 0): 100%
killing at 1 % ([2]; times of washing 10): 99.9%
killing at 1 % ([2]; times of washing 50): 99.9%
killing at 1 % ([3]; times of washing 0): 100%
killing at 1 % ([3]; times of washing 10): 99.9%
killing at 1 % ([3]; times of washing 50): 99.9%

Cc1nc(Cl)nc(OCCn2cc[n+](C)c2)n1 [Example 12]
killing at 1 % ([1]; times of washing 0): 99.9%
killing at 1 % ([1]; times of washing 10): 99.9%
killing at 1 % ([1]; times of washing 50): 91.9%
killing at 1 % ([2]; times of washing 0): 100%
killing at 1 % ([2]; times of washing 10): 99.9%
killing at 1 % ([2]; times of washing 50): 98.9%
killing at 1 % ([3]; times of washing 0): 100%
killing at 1 % ([3]; times of washing 10): 99.9%
killing at 1 % ([3]; times of washing 50): 99.5%

C[n+]1ccn(CCCCCCCCCCCCCCCCCCOc2nc(Cl)nc(Cl)n2)c1 [Example 13]
killing at 1 % ([1]; times of washing 0): 99.9%
killing at 1 % ([1]; times of washing 10): 99.9%
killing at 1 % ([1]; times of washing 50): 98.9%
killing at 1 % ([2]; times of washing 0): 100%
killing at 1 % ([2]; times of washing 10): 99.9%
killing at 1 % ([2]; times of washing 50): 99.5%
killing at 1 % ([3]; times of washing 0): 100%
killing at 1 % ([3]; times of washing 10): 99.9%
killing at 1 % ([3]; times of washing 50): 99.9%

C[n+]1ccn(CCCNc2nc(Cl)nc(Cl)n2)c1 [Example 14]
killing at 1 % ([1]; times of washing 0): 99.9%
killing at 1 % ([1]; times of washing 10): 99.9%
killing at 1 % ([1]; times of washing 50): 99.9%
killing at 1 % ([2]; times of washing 0): 100%
killing at 1 % ([2]; times of washing 10): 99.9%
killing at 1 % ([2]; times of washing 50): 99.1%
killing at 1 % ([3]; times of washing 0): 100%
killing at 1 % ([3]; times of washing 10): 99.9%
killing at 1 % ([3]; times of washing 50): 99.5%

C[n+]1ccc(COc2nc(Cl)nc(Cl)n2)cc1 [Example 15]
killing at 1 % ([1]; times of washing 0): 99.9%
killing at 1 % ([1]; times of washing 10): 99.9%
killing at 1 % ([1]; times of washing 50): 92.9%
killing at 1 % ([2]; times of washing 0): 100%
killing at 1 % ([2]; times of washing 10): 99.9%
killing at 1 % ([2]; times of washing 50): 98.9%
killing at 1 % ([3]; times of washing 0): 100%
killing at 1 % ([3]; times of washing 10): 99.9%
killing at 1 % ([3]; times of washing 50): 99.1%

CCCCCCCCCCCC[n+]1cc[n+](CCCCCCCCCCCC)c(CCSc2nc(Cl)nc(Cl)n2)c1 [Example 16]
killing at 1 % ([1]; times of washing 0): 99.9%
killing at 1 % ([1]; times of washing 10): 99.9%
killing at 1 % ([1]; times of washing 50): 93.6%
killing at 1 % ([2]; times of washing 0): 100%
killing at 1 % ([2]; times of washing 10): 99.9%
killing at 1 % ([2]; times of washing 50): 99.8%
killing at 1 % ([3]; times of washing 0): 100%
killing at 1 % ([3]; times of washing 10): 99.9%
killing at 1 % ([3]; times of washing 50): 99.9%

CCCCCCCCCCCC[N+](C)(C)CCN(CCOc1nc(Cl)nc(Cl)n1)CC[N+](C)(C)CCCCCCCCCCCC [Example 17]
killing at 1 % ([1]; times of washing 0): 99.9%
killing at 1 % ([1]; times of washing 10): 99.9%
killing at 1 % ([1]; times of washing 50): 99.3%
killing at 1 % ([2]; times of washing 0): 100%
killing at 1 % ([2]; times of washing 10): 99.9%
killing at 1 % ([2]; times of washing 50): 99.5%
killing at 1 % ([3]; times of washing 0): 100%
killing at 1 % ([3]; times of washing 10): 99.9%
killing at 1 % ([3]; times of washing 50): 99.9%

C[N+](C)(C)CCCCCCCCCCCCCCCCCCN(CCCCCCCCCCCCCCCCCC[N+](C)(C)C)CCOc1nc(Cl)nc(Cl)n1 [Example 18]
killing at 1 % ([1]; times of washing 0): 99.9%
killing at 1 % ([1]; times of washing 10): 99.9%
killing at 1 % ([1]; times of washing 50): 96.9%
killing at 1 % ([2]; times of washing 0): 100%
killing at 1 % ([2]; times of washing 10): 99.9%
killing at 1 % ([2]; times of washing 50): 97.9%
killing at 1 % ([3]; times of washing 0): 100%
killing at 1 % ([3]; times of washing 10): 99.9%
killing at 1 % ([3]; times of washing 50): 98.9%

Clc1nc(Cl)nc(OCCC[P+](c2ccccc2)(c2ccccc2)c2ccccc2)n1 [Example 20]
killing at 1 % ([1]; times of washing 0): 99.9%
killing at 1 % ([1]; times of washing 10): 99.9%
killing at 1 % ([1]; times of washing 50): 92.9%
killing at 1 % ([2]; times of washing 0): 100%
killing at 1 % ([2]; times of washing 10): 99.9%
killing at 1 % ([2]; times of washing 50): 95.9%
killing at 1 % ([3]; times of washing 0): 100%
killing at 1 % ([3]; times of washing 10): 99.9%
killing at 1 % ([3]; times of washing 50): 97.9%

Clc1nc(Cl)nc(OCCC[P+](c2ccccc2)(c2ccccc2)c2ccccc2)n1.[Br-] [Example 21]
Anti-microbial rate (%) of cotton textiles finished with compound E (1.0 wt %), C. albicans ([1]; times of washing 0): 99.9%
Anti-microbial rate (%) of cotton textiles finished with compound E (1.0 wt %), C. albicans ([1]; times of washing 10): 99.9%
Anti-microbial rate (%) of cotton textiles finished with compound E (1.0 wt %), C. albicans ([1]; times of washing 50): 93.9%
Anti-microbial rate (%) of cotton textiles finished with compound E (1.0 wt %), E. coli ([2]; times of washing 0): 99.99%
Anti-microbial rate (%) of cotton textiles finished with compound E (1.0 wt %), E. coli ([2]; times of washing 10): 99.9%
Anti-microbial rate (%) of cotton textiles finished with compound E (1.0 wt %), E. coli ([2]; times of washing 50): 96.9%
Anti-microbial rate (%) of cotton textiles finished with compound E (1.0 wt %), S. aureus ([3]; times of washing 0): 99.99%
Anti-microbial rate (%) of cotton textiles finished with compound E (1.0 wt %), S. aureus ([3]; times of washing 10): 99.9%
Anti-microbial rate (%) of cotton textiles finished with compound E (1.0 wt %), S. aureus ([3]; times of washing 50): 98.9%
